The structures appear in SMILES notation. *1 amine or outer side, *2 acyl side, *3 side chain or, on linkers, in order; H or OH if unused. Where a SMILES comes first, the peptide text is derived from it. Side-chain parts run from the residue outwards. [ ]: non-standard residue; d: D form. The star is where a group is joined. C18 diacid = O=C(O)CCCCCCCCCCCCCCCCC(=O)*; C16 diacid = O=C(O)CCCCCCCCCCCCCCC(=O)*; γGlu = O=C(O)[C@H](CCC(=O)[*:2])N[*:1]; NMeI = CC[C@H](C)[C@H](NC)C(=O)O; αMeL = CC(C)C[C@](C)(N)C(=O)O; Ac5c = NC1(C(=O)O)CCCC1; AEEA = NCCOCCOCC(=O)O; Aib = CC(C)(N)C(=O)O

For orientation: EC50 means the concentration needed to bring the measured effect to its halfway point.

One assay has as its target T1, CFR1R receptor (Homo sapiens, UniProt P34998).
T1 construct: host or cells: CHO-K1 (clone 2)
T1 sequence (P34998 24-415): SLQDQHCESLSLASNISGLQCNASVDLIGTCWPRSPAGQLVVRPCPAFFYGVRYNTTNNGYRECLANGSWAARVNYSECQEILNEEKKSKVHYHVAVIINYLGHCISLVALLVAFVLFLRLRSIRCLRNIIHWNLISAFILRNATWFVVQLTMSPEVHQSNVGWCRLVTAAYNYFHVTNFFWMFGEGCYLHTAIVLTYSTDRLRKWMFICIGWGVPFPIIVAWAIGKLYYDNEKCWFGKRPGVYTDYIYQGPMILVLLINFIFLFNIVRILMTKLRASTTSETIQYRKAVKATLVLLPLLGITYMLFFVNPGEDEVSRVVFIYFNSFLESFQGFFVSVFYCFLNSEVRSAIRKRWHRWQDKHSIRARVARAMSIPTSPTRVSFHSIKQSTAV
Put plainly: Activity at anti-target CFR1R receptor, cAMP assay in CRF1R-overexpression CHO-K1 cells. It counts as cell-based. Conditions: 100% = Sauvagine at 100 nM; for EC50: cAMP. The method, boiled down:
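The method mirrors that used with TeloHAEC cells. Here, thawed clone 2 cells seeded at 4000 cells/well are tested, and 100 nM Sauvagine sets the top of the activation scale.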

In the next assay the target is T2, human CRF2a receptor (Homo sapiens, UniProt Q13324).
T2 construct: expressed in transfected cells; host or cells: TeloHEAC cells
T2 sequence (Q13324 1-411): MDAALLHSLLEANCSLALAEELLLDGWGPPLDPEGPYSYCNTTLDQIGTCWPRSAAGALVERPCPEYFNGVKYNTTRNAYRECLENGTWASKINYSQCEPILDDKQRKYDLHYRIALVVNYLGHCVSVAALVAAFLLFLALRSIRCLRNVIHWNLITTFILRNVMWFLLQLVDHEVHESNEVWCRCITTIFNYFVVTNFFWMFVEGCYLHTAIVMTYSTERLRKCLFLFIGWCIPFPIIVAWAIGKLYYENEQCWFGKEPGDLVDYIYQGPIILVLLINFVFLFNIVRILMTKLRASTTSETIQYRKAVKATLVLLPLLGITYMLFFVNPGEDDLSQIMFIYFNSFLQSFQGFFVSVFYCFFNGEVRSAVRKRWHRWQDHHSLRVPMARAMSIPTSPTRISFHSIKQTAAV
The assay can be described thus: Activity at human CRF2a receptor, cAMP functional assay in TeloHEAC cells. The format is cell-based. Conditions: TeloHEAC cells stably expressing human CRF2a receptor, relative to urocortin 2 (100 nM = 100%). The method, boiled down:
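TeloHEAC cells stably expressing human CRF2a (10000 cells/well) were treated with 16-point 1:2 compound dilutions in HBSS/20 mM HEPES with IBMX for 30 min at 37° C. cAMP was read by HTRF (665/620 nm ratio). EC50 was the concentration giving 50% activation, with 100 nM urocortin 2 set as 100%.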

Consider `CC[C@H](C)[C@H](NC(=O)[C@H](CCC(N)=O)NC(=O)[C@H](C)NC(=O)[C@H](CC(N)=O)NC(=O)[C@@H](NC(=O)[C@H](CCC(=O)O)NC(=O)[C@H](C)NC(=O)[C@H](CCC(N)=O)NC(=O)[C@H](CCC(=O)O)NC(=O)[C@H](CCCNC(=N)N)NC(=O)[C@H](CCC(N)=O)NC(=O)[C@H](CCCCN)NC(=O)[C@H](CCCCN)NC(=O)[C@H](CCC(N)=O)NC(=O)[C@H](CCCCN)NC(=O)[C@H](CCC(=O)O)NC(=O)[C@H](CCC(N)=O)NC(=O)[C@H](CCC(=O)O)NC(=O)[C@H](CC(C)C)NC(=O)[C@H](CC(C)C)NC(=O)[C@@H](NC(=O)[C@H](CCCCN)NC(=O)[C@H](CCCCNC(=O)COCCOCCNC(=O)COCCOCCNC(=O)CC[C@H](NC(=O)CCCCCCCCCCCCCCCCC(=O)O)C(=O)O)NC(=O)[C@H](CC(C)C)NC(=O)[C@H](CCCCN)NC(=O)[C@@H](NC(=O)[C@@H]1CCCN1C(=O)[C@H](NC(=O)[C@H](CC(=O)O)NC(=O)[C@H](CC(C)C)NC(=O)[C@H](CO)NC(=O)[C@H](CC(C)C)NC(=O)[C@@H](NC(C)=O)C(C)C)C(C)C)[C@@H](C)CC)[C@@H](C)CC)[C@@H](C)O)C(=O)N[C@@H](CC(C)C)C(=O)N[C@@H](C)C(=O)N[C@@H](CCC(N)=O)C(=O)N[C@H](C(N)=O)C(C)C` [compound 101] (Ac-VLSLD[dV]PIKLK([AEEA-AEEA-γGlu-C18 diacid])KILLEQEKQKKQREQAETNAQILAQV-NH2), for which, at CFR1R receptor, the “Emax (% I)” value was found to be 0 % I and the half-maximal effective concentration (EC50) is > 250 nM. This molecule also showed a concentration for a half-maximal effect (EC50) at human CRF2a receptor of 1.74 nM.
The corresponding values for `CC[C@H](C)[C@H](NC(=O)[C@H](CCC(N)=O)NC(=O)C(C)(C)NC(=O)[C@H](CC(N)=O)NC(=O)[C@@H](NC(=O)[C@H](CCC(=O)O)NC(=O)[C@H](C)NC(=O)[C@H](CCC(N)=O)NC(=O)[C@H](CCC(=O)O)NC(=O)[C@H](CCCNC(=N)N)NC(=O)[C@H](CCC(N)=O)NC(=O)[C@H](CCCCN)NC(=O)[C@H](CCCCN)NC(=O)[C@H](CCC(N)=O)NC(=O)[C@H](CCCCN)NC(=O)[C@H](CCC(=O)O)NC(=O)[C@H](CCC(N)=O)NC(=O)[C@H](CCC(=O)O)NC(=O)[C@H](CC(C)C)NC(=O)[C@H](CC(C)C)NC(=O)[C@@H](NC(=O)[C@H](CCCCN)NC(=O)[C@H](CCCCNC(=O)CC[C@H](NC(=O)CCCCCCCCCCCCCCC(=O)O)C(=O)O)NC(=O)[C@](C)(CC(C)C)NC(=O)[C@H](CCCCN)NC(=O)[C@@H](NC(=O)[C@@H]1CCCN1C(=O)[C@H](NC(=O)[C@H](CC(=O)O)NC(=O)[C@H](CC(C)C)NC(=O)[C@H](CO)NC(=O)[C@H](CC(C)C)NC(=O)[C@@H](NC(C)=O)C(C)C)C(C)C)[C@@H](C)CC)[C@@H](C)CC)[C@@H](C)O)C(=O)N[C@@H](CC(C)C)C(=O)N[C@@H](C)C(=O)N[C@@H](CCC(N)=O)C(=O)N[C@H](C(N)=O)C(C)C` [compound 46] (Ac-VLSLD[dV]PIK[αMeL]K([γGlu-C16 diacid])KILLEQEKQKKQREQAETN[Aib]QILAQV-NH2) are 6 % I, > 250 nM and 0.7 nM.
The corresponding values for `CC[C@H](C)[C@H](NC(C)=O)C(=O)N[C@H](C(=O)N[C@@H](CC(C)C)C(=O)N[C@@H](CO)C(=O)N[C@@H](CC(C)C)C(=O)N[C@@H](CC(=O)O)C(=O)N[C@@H](C(=O)N1CCC[C@H]1C(=O)N[C@H](C(=O)N[C@@H](CCCCN)C(=O)N[C@@H](CC(C)C)C(=O)N[C@@H](CCCCNC(=O)CC[C@H](NC(=O)CCCCCCCCCCCCCCCCC(=O)O)C(=O)O)C(=O)N[C@@H](CCCCN)C(=O)N[C@H](C(=O)N[C@@H](CC(C)C)C(=O)N[C@@H](CC(C)C)C(=O)N[C@@H](CCC(=O)O)C(=O)N[C@@H](CCC(N)=O)C(=O)N[C@@H](CCC(=O)O)C(=O)N[C@@H](CCCCN)C(=O)N[C@@H](CCC(N)=O)C(=O)N[C@@H](CCCCN)C(=O)N[C@@H](CCCCN)C(=O)N[C@@H](CCC(N)=O)C(=O)N[C@@H](CCCNC(=N)N)C(=O)N[C@@H](CCC(=O)O)C(=O)N[C@@H](CCC(N)=O)C(=O)N[C@@H](C)C(=O)N[C@@H](CCC(=O)O)C(=O)N[C@H](C(=O)N[C@@H](CC(N)=O)C(=O)NC1(C(=O)N[C@@H](CCC(N)=O)C(=O)N[C@H](C(=O)N[C@@H](CC(C)C)C(=O)N[C@@H](C)C(=O)N[C@@H](CCC(N)=O)C(=O)N[C@H](C(N)=O)C(C)C)[C@@H](C)CC)CCCC1)[C@@H](C)O)[C@@H](C)CC)[C@@H](C)CC)C(C)C)C(C)C` [compound 135] (Ac-IVLSLD[dV]PIKLK([γGlu-C18 diacid])KILLEQEKQKKQREQAETN[Ac5c]QILAQV-NH2) are 15 % I, > 250 nM and 0.19 nM.
For `CC[C@H](C)[C@H](NC(C)=O)C(=O)N[C@H](C(=O)N[C@@H](CC(C)C)C(=O)N[C@@H](CO)C(=O)N[C@@H](CC(C)C)C(=O)N[C@@H](CC(=O)O)C(=O)N[C@@H](C(=O)N1CCC[C@H]1C(=O)N[C@H](C(=O)N[C@@H](CCCCN)C(=O)N[C@@H](CC(C)C)C(=O)N[C@@H](CCCCNC(=O)COCCOCCNC(=O)COCCOCCNC(=O)CC[C@H](NC(=O)CCCCCCCCCCCCCCCCC(=O)O)C(=O)O)C(=O)N[C@@H](CCCCN)C(=O)N[C@H](C(=O)N[C@@H](CC(C)C)C(=O)N[C@@H](CC(C)C)C(=O)N[C@@H](CCC(=O)O)C(=O)N[C@@H](CCC(N)=O)C(=O)N[C@@H](CCC(=O)O)C(=O)N[C@@H](CCCCN)C(=O)N[C@@H](CCC(N)=O)C(=O)N[C@@H](CCCCN)C(=O)N[C@@H](CCCCN)C(=O)N[C@@H](CCC(N)=O)C(=O)N[C@@H](CCCNC(=N)N)C(=O)N[C@@H](CCC(=O)O)C(=O)N[C@@H](CCC(N)=O)C(=O)N[C@@H](C)C(=O)N[C@@H](CCC(=O)O)C(=O)N[C@H](C(=O)N[C@@H](CC(N)=O)C(=O)N[C@@H](CCC(=O)O)C(=O)N[C@@H](CCC(N)=O)C(=O)N[C@H](C(=O)N[C@@H](CC(C)C)C(=O)N[C@@H](C)C(=O)N[C@@H](CCC(N)=O)C(=O)N[C@H](C(N)=O)C(C)C)[C@@H](C)CC)[C@@H](C)O)[C@@H](C)CC)[C@@H](C)CC)C(C)C)C(C)C` [compound 108] (Ac-IVLSLD[dV]PIKLK([AEEA-AEEA-γGlu-C18 diacid])KILLEQEKQKKQREQAETNEQILAQV-NH2), on CFR1R receptor, the “Emax (% I)” value was 4 % I and the EC50 is > 250 nM. At human CRF2a receptor, this molecule registered a 50% effective concentration (EC50) of 1.14 nM.
In the case of `CC[C@H](C)[C@H](NC)C(=O)N[C@H](C(=O)N[C@@H](CC(C)C)C(=O)N[C@@H](CO)C(=O)N[C@@H](CC(C)C)C(=O)N[C@@H](CC(=O)O)C(=O)N[C@@H](C(=O)N1CCC[C@H]1C(=O)N[C@H](C(=O)N[C@@H](CCCCN)C(=O)N[C@@H](CC(C)C)C(=O)N[C@@H](CCCCNC(=O)CC[C@H](NC(=O)CCCCCCCCCCCCCCC(=O)O)C(=O)O)C(=O)N[C@@H](CCCCN)C(=O)N[C@H](C(=O)N[C@@H](CC(C)C)C(=O)N[C@@H](CC(C)C)C(=O)N[C@@H](CCC(=O)O)C(=O)N[C@@H](CCC(N)=O)C(=O)N[C@@H](CCC(=O)O)C(=O)N[C@@H](CCCCN)C(=O)N[C@@H](CCC(N)=O)C(=O)N[C@@H](CCCCN)C(=O)NC(C)(C)C(=O)N[C@@H](CCC(N)=O)C(=O)N[C@@H](CCCNC(=N)N)C(=O)N[C@@H](CCC(=O)O)C(=O)N[C@@H](CCC(N)=O)C(=O)N[C@@H](C)C(=O)N[C@@H](CCC(=O)O)C(=O)N[C@H](C(=O)N[C@@H](CC(N)=O)C(=O)NC(C)(C)C(=O)N[C@@H](CCC(N)=O)C(=O)N[C@H](C(=O)N[C@@H](CC(C)C)C(=O)N[C@@H](C)C(=O)N[C@@H](CCC(N)=O)C(=O)N[C@H](C(N)=O)C(C)C)[C@@H](C)CC)[C@@H](C)O)[C@@H](C)CC)[C@@H](C)CC)C(C)C)C(C)C` [compound 75] (H-[NMeI]VLSLD[dV]PIKLK([γGlu-C16 diacid])KILLEQEKQK[Aib]QREQAETN[Aib]QILAQV-NH2), at CFR1R receptor, the “Emax (% I)” value is 3 % I and the EC50 is > 250 nM. On human CRF2a receptor, the EC50 came to 0.19 nM.
